These results are taken from US8709740B2, “Control of protein activity using a conducting polymer” (The United States of America, as represented by the …, priority 2005, dated 2014).

As usually defined, the Ki is the equilibrium dissociation constant of an inhibitor or competing ligand from its target.

SMILES strings stand for the structures.

One experiment deals with kinesin. The note with it: comparison value, source not given; read-out: inhibition constant Ki (other inhibitors); cited from earlier work.
Experiment [1] concerns the target T1, Drosophila sp. kinesin K401-BCCP-His6 (K401-biotin carboxyl carrier protein-His6) (Drosophila melanogaster, UniProt P17210).
T1 construct: motor domain, neck linker and part of the coiled coil) of kinesin-1 heavy chain fused to biotin carboxyl carrier protein (BCCP, from E. coli in the known construct) and a His6 tag; microtubules and ATP present
As to the kind of experiment: Michaelis-Menten kinetics of kinesin on poly(OH-EDOT) surface from microtubule gliding speeds at varied ATP concentration. The class given is biochemical. From the text:
The protein ensemble (streptavidin, BSA, Drosophila kinesin K401-biotin carboxyl carrier protein (BCCP)-His6 and MTs) was deposited onto the conducting polymer surface (initially doped) using standard flow or droplet deposition methods. Flow cells were assembled using double-sided tape as a spacer creating a channel of approximate dimensions 5 mm×10 mm×0.04 mm. For the non-electrochemical assays, the poly(OH-EDOT)/PET substrate was placed on a glass slide with the conducting polymer layer down. The proteins were introduced using the standard capillary-flow technique. The buffer for all experiments was BRB80 (80 mM Pipes, 2 mM MgCl2, 1 mM EGTA, pH 6.95 with KOH). The flow cells were sequentially filled with a streptavidin solution (Streptomyces avidinii, Sigma-Aldrich, 1.0 mg/mL in BRB80, 10 min deposition time), BSA solution (Sigma-Aldrich, 1.0 mg/mL in BRB80, 10 min deposition time), standard kinesin solution (40 μg/mL kinesin K401-BCCP-His6 with 1 mM ATP in BRB80, 10 min deposition time), and finally a motility buffer with rhodamine-labeled microtubules (1-10 μm in length), containing 1 mM ATP and stabilized with 10 μM Taxol with oxygen scavenging additives (20 mM D-glucose, 20 μg/mL glucose oxidase, 8 μg/mL catalase, 0.2% 2-mercaptoethanol). Flow cells were sealed with immersion oil to prevent evaporation. The assays were performed at room temperature (21° C.).
It has recently been well established that as kinesin hydrolyzes a single ATP molecule, it induces an eight-nanometer movement of a microtubule. Therefore enzyme activity can be indirectly assayed by simply determining the average speed of a large population of microtubules. This was done using fluorescently-labeled microtubules, and their gliding speeds were then carefully measured using confocal microscopy. Microtubules were visualized on the conducting polymer using an Olympus Opelco BX51 fluorescence microscope and their speeds quantified using Metamorph image analysis software (Universal Imaging, Downingtown, Pa.). This assay method was then combined with a transparent electrochemical cell containing a poly(OH-EDOT) support. The poly(OH-EDOT) was ˜80% transparent in the visible range, allowing the microtubules to be easily seen and their speeds measured. […] The surface was then electrochemically doped by applying a bias of […] for 1 minute. The average microtubule speed was measured and found to be 0.40 μm/sec. The resulting ratio in speed differences (dedoped vs. doped surfaces) is 1.55, a striking exact correlation with the ATP hydrolysis ratios on the two surfaces. The surface was then cycled between the two states once more to give an overall cycling history of −1.0 V, +1.0 V, −1.0 V, +1.0 V with corresponding polymer states dedoped, doped, dedoped, doped (FIG. 3). For the second doping cycle the microtubule speeds were 0.63 (dedoped) and 0.40 (doped), giving a speed difference ratio of […].
At this point it was clear that the polymer surface was exerting a direct, reversible effect on the kinesin protein itself. The nature of this influence was examined by treating the charged species in the doped polymer form (the radical cation, or polaron) as an inhibitor, and quantified the enzyme kinetics in terms of Michaelis-Menten parameters. First, the surface concentration of the polarons was calculated using the established value of one polaron per four polymer repeat units for fully doped thiophene-type polymers. […] If one then encloses a kinesin molecule in a cube 30 nm per side and considers the polarons on the 30 nm×30 nm surface region to be distributed in the cube volume, an apparent local polaron concentration ([Iapp]) of 3.89 mM is obtained.
The Michaelis-Menten analysis assumes a kinetic model of the type shown in FIG. 5 (E=enzyme, ES=enzyme-substrate complex, P=product, kcat=catalytic turnover rate constant, Dstep=8 nm, Km=Michaelis constant). The kinetics of most enzymes, including kinesin, is accurately described with this model. […]

Setting [2] is: substrate ATP, doped vs dedoped surface.

T1 sequence (P17210 1-401): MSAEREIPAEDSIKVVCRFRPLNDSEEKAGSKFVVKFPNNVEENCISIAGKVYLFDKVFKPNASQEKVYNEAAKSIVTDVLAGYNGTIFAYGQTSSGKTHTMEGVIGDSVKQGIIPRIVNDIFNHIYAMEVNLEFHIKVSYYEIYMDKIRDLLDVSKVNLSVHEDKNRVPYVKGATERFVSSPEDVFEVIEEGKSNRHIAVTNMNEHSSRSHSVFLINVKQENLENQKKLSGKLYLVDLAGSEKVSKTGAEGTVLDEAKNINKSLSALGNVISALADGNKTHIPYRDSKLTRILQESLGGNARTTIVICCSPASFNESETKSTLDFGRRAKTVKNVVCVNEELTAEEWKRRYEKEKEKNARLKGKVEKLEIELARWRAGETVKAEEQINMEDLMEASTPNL

As for `Nc1ncnc2c1ncn2[C@@H]1O[C@H](COP(=O)(O)OP(=O)(O)O)[C@@H](O)[C@H]1O` [ADP, adenosine diphosphate], the Ki on kinesin is 0.048 mM.
Turning to `Nc1ncnc2c1ncn2[C@@H]1O[C@H](COP(=O)(O)OP(=O)(O)OP(=O)(O)O)[C@@H](O)[C@H]1O` [ATP, adenosine triphosphate], in experiment [1] (dedoped poly(OH-EDOT) surface, microtubule speed at infinite ATP concentration, 21° C., BRB80 pH 6.95), the Speedmax dedoped was 0.943 μm/s ± 0.05. For the same compound, the Speedmax doped in experiment [1] (doped poly(OH-EDOT) surface, microtubule speed at infinite ATP concentration, 21° C., BRB80 pH 6.95) was 0.600 μm/s ± 0.03. The kcat dedoped in experiment [1] (substrate ATP, dedoped poly(OH-EDOT) surface, 8 nm step per ATP hydrolyzed) was 118 sec^−1 ± 6. Also, the kcat doped in experiment [1] (substrate ATP, doped poly(OH-EDOT) surface, 8 nm step per ATP hydrolyzed) is listed as 75.0 sec^−1 ± 3. Besides, in experiment [1] (setting [2]), the “Km app doped lower than Km dedoped” value is “ca. 35%” and the “kcat doped lower than kcat dedoped” value is on record as “ca. 36%”.
With `O=P(O)(O)O` [PO4^2−], the Ki on kinesin was 9.3 mM.
